What was measured:
cortical rat neurons = assay: Dendrite and synaptic connections of rat cortical neurons after exposure to tryptamines (FIG. 2); type: cell-based; details: 24 hours of exposure, FIG. 2 left to right
Excerpt: The effect is dramatic and fast even with very small doses of the compounds which is a desirable profile for a therapeutic molecule. Looking at FIG. 2 from left to right, it is apparent that LSD>DMT>DOI>Vehicle with regards to dendritic and synaptic generation. Potential therapeutics that can be used in the present invention are tryptamines such as tryptamines and phenethylamines selected from the group, N, N-dimethyltryptamine, 5-methoxy-N, N-dimethyltryptamine, Ketamine, noribogaine, psilocin 3,4-methylenedioxymethamphetamine, mescaline, psilocin, and psilocybin. The dose concentration will vary by molecule type but can range for 0.00001 to 250 milligrams to kilograms (mg/kg) of body weight with 0.01 to 50 mg/kg being preferred.

rat neurons = assay: SEM images of rat neurons after exposure to toxic amyloid peptide (FIG. 1); type: cell-based; details: exposure for 4 days to 250 micro molar toxic peptide
Excerpt: At this resolution one can see copious dendritic structures, the round dark circles. The resolution is not high enough to visualize synaptic connections. The image labeled A is of rat neurons after exposure for 4days to 250 micro molar concentrations of toxic peptide. […] This model emulates what is seen in the human versions of AD disease.

| Molecule | rank order with regards to dendritic and synaptic generation (cortical rat neurons) | degradation of the dendrites (and synaptic connections) (rat neurons) |
| --- | --- | --- |
| COc1cc(CC(C)N)c(OC)cc1I (stereo not drawn) [DOI] | LSD>DMT>DOI>Vehicle |  |
| A 42 amyloid proteins: toxic amyloid protein used to compromise rat neurons, dendrites and synaptic connections |  | significant degradation of the dendrites |
| CN(C)CCc1c[nH]c2ccccc12 [DMT, N, N-dimethyltryptamine] | LSD>DMT>DOI>Vehicle |  |

Source: patent US20250127775A1, “METHOD OF INDUCING DENDRITIC AND SYNAPTIC GENESIS IN NEURODE[…] DISEASES” (priority 2018, published 2025)
